From patent US10350271B2, “Lipidated peptides for lowering blood glucose” (USTAV ORGANICKE CHEMIE A BIOCHEMIE AKADEMIE VED CR, V.V.I., priority 2014, dated 2019)
Side chains are listed from the residue outwards. Ends that are not written are not given here. Peptide text beside a SMILES is read from it. * marks the point of attachment. Palmitoyl = CCCCCCCCCCCCCCCC(=O)*; GABA = NCCCC(=O)O

Columns and labels:
[1] = target: T1, human PrRP receptor GPR10 (Homo sapiens, UniProt P49683); test: Competitive binding in CHO cells transfected with human GPR10 (human 125I-PrRP31); details: for Ki: CHO cells, human 125I-PrRP31, read-out: Ki, GPR10 human receptor transfected in CHO cells; for % of PrRP31, GPR10 human receptor transfected in CHO cells: affinity relative to PrRP31
T1 construct: host or cells: CHO cells
T1 sequence (P49683 1-370): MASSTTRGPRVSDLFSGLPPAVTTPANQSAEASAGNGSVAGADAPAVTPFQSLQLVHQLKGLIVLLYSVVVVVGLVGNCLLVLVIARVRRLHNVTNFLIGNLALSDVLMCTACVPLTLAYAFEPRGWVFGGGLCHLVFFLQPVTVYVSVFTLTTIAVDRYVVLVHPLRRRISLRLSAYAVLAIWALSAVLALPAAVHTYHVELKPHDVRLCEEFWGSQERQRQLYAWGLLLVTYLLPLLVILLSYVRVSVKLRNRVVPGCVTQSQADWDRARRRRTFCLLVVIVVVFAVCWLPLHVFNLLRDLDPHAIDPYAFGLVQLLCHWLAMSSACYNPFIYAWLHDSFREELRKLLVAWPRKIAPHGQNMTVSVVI
Method in brief: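 GPR10-transfected CHO cells (40-80 thousand/well) incubated 60 min at room temperature with 5×10^-11 mol·l^-1 human 125I-PrRP31 and unlabeled analog at 10^-11 to 10^-4 mol·l^-1 in Tris binding buffer pH 7.4. Cells solubilized in 0.1 mol/l NaOH, γ-counted; one-site nonlinear regression fit.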

C57BL/6 mice = test: Food intake in fasted mice after SC injection; assay type: in vivo; details: 5 mg/kg SC, 45 min after injection
Method in brief: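 Overnight-fasted animals (food removed 17 h before dosing, water available) in individual cages got saline, PrRP or lipidated PrRP analogs SC at 1-10 mg/kg.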

Wistar rats = test: Food intake in fasted rats after SC injection; assay type: in vivo; details: overnight fasted rats, compared to controls given vehicle
Description: NMRI mice, C57BL/6 mice, and Wistar rats (AnLab, Prague, Czech Republic) were housed in a temperature of 23° C. and a daily cycle of 12 h light and dark (light from 6:00). They were given ad libitum water and a standard chow diet that contained 25, 9 and 66% of calories of protein, fat and carbohydrate respectively. Energy content of the feed was 3.4 kcal/g (St-1, Mlýn Kocanda, Czech Republic). Db/db mice and their controls (C57BL/6 background) were obtained from Taconic (Denmark), housed under the same conditions as described above, and fed by Altromin (Taconic, Denmark). ZDF-Lepr^fa/Crl, diabetic fa/fa male rats were obtained from Charles River (France), housed under same conditions as described above, and fed with a Purina 5008 diet (IPS Product Supplies Limited, UK). All experiments followed the ethical guidelines for animal experiments and the law of the Czech Republic Nr. 246/1992.
In experiments with C57BL/6 mice or Wistar rats, food intake was measured with overnight fasted animals in individual cages. Food was withdrawn 17 hours prior to injection of lipidated analog of prolactin releasing peptide (PrRP); free access to water was maintained. The administration of either saline, PrRP, or lipidated analogs was performed by SC injection at doses of 1-10 mg/kg (which corresponded to a volume of 0.2 ml/mouse and 0.1 ml/100 g weight of rat). Fifteen minutes after the lipidated analog of prolactin releasing peptide (PrRP) administration, the mice were given pre-weighed food. The food was then weighed every 30 minutes for 5-10 hours. The administration of each dose was performed at least twice, and each group of mice consisted of at least 6 mice.

rat PrRP receptor = target: T2, rat PrRP receptor (Rattus norvegicus, UniProt Q64121); test: Competitive binding in RC-4B/C rat pituitary cells (125I-rat PrRP31); details: for Ki: RC-4B/C cells, displacement of 125I-rat PrRP31, read-out: Ki, RC-4B/C rat pituitary cells ^25I-rat PrRP31; for % of PrRP31, RC-4B/C rat pituitary cells: affinity relative to PrRP31
T2 construct: host or cells: RC-4B/C rat pituitary cell line
T2 sequence (Q64121 1-370): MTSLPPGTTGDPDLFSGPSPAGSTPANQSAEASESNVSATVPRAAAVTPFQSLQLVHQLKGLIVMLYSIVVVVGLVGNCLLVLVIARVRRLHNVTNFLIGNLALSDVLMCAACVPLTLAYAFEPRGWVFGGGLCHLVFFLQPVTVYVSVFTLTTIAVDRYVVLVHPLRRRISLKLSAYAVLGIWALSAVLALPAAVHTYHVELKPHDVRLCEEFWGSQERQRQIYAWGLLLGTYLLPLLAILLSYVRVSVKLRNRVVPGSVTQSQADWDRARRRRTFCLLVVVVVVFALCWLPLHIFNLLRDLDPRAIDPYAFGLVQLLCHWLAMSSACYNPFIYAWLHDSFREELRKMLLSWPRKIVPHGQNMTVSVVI
Method in brief: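 Intact rat pituitary RC-4B/C cells incubated 60 min at room temperature with […] rat 125I-PrRP31 and unlabeled analog (10^−11 to 10^−4 mol·l^−1) in HEPES pH 7.4 buffer. Cell-bound radioactivity γ-counted after NaOH lysis; one-site competition fit.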

Molecule | Ki [1] | % of PrRP31, GPR10 human receptor transfected in CHO cells [1] | Food intake in mice % of saline-treated group (C57BL/6 mice) | Food intake in rats (Wistar rats) | Ki (rat PrRP receptor) | % of PrRP31, RC-4B/C rat pituitary cells (rat PrRP receptor)
CCCCCCCCCCCCCCCC(=O)NCCCC[C@H](NC(=O)[C@@H](NC(=O)[C@H](CCC(=O)O)NC(=O)[C@H](CCSC)NC(=O)[C@H](CO)NC(=O)[C@H](Cc1c[nH]cn1)NC(=O)[C@H](CCCNC(=N)N)NC(=O)[C@H](Cc1c[nH]cn1)NC(=O)[C@@H](NC(=O)[C@H](CCCNC(=N)N)NC(=O)[C@@H](N)CO)[C@@H](C)O)[C@@H](C)CC)C(=O)N[C@H](C(=O)N1CCC[C@H]1C(=O)N[C@@H](CC(=O)O)C(=O)N[C@H](C(=O)N[C@@H](CC(N)=O)C(=O)N1CCC[C@H]1C(=O)N[C@@H](C)C(=O)N[C@@H](Cc1c[nH]c2ccccc12)C(=O)N[C@@H](Cc1ccc(O)cc1)C(=O)N[C@@H](C)C(=O)N[C@@H](CO)C(=O)N[C@@H](CCCNC(=N)N)C(=O)NCC(=O)N[C@H](C(=O)N[C@@H](CCCNC(=N)N)C(=O)N1CCC[C@H]1C(=O)N[C@H](C(=O)NCC(=O)N[C@@H](CCCNC(=N)N)C(=O)N[C@@H](Cc1ccccc1)C(N)=O)C(C)C)[C@@H](C)CC)[C@@H](C)CC)[C@@H](C)O [Analog 48] (H-SRTHRHSMEIK(Palmitoyl)TPDINPAWYASRGIRPVGRF-NH2) | 6.37 ± 0.78 nM | 61% | 13% | significantly reduced |  | 
CCCCCCCCCCCCCCCC(=O)NCCCC(=O)NCCCC[C@H](NC(=O)[C@@H](NC(=O)[C@H](CCC(=O)O)NC(=O)[C@H](CCSC)NC(=O)[C@H](CO)NC(=O)[C@H](Cc1c[nH]cn1)NC(=O)[C@H](CCCNC(=N)N)NC(=O)[C@H](Cc1c[nH]cn1)NC(=O)[C@@H](NC(=O)[C@H](CCCNC(=N)N)NC(=O)[C@@H](N)CO)[C@@H](C)O)[C@@H](C)CC)C(=O)N[C@H](C(=O)N1CCC[C@H]1C(=O)N[C@@H](CC(=O)O)C(=O)N[C@H](C(=O)N[C@@H](CC(N)=O)C(=O)N1CCC[C@H]1C(=O)N[C@@H](C)C(=O)N[C@@H](Cc1c[nH]c2ccccc12)C(=O)N[C@@H](Cc1ccc(O)cc1)C(=O)N[C@@H](C)C(=O)N[C@@H](CO)C(=O)N[C@@H](CCCNC(=N)N)C(=O)NCC(=O)N[C@H](C(=O)N[C@@H](CCCNC(=N)N)C(=O)N1CCC[C@H]1C(=O)N[C@H](C(=O)NCC(=O)N[C@@H](CCCNC(=N)N)C(=O)N[C@@H](Cc1ccccc1)C(N)=O)C(C)C)[C@@H](C)CC)[C@@H](C)CC)[C@@H](C)O [Analog 53] (H-SRTHRHSMEIK([GABA-Palmitoyl])TPDINPAWYASRGIRPVGRF-NH2) | 9.19 ± 0.96 nM | 42.5% | 25% | significantly reduced | 1.26 ± 0.57 nM | 190%
CCCCCCCCCCCCCCCC(=O)N[C@@H](CCC(=O)N[C@@H](CO)C(=O)N[C@@H](CCCNC(=N)N)C(=O)N[C@H](C(=O)N[C@@H](Cc1c[nH]cn1)C(=O)N[C@@H](CCCNC(=N)N)C(=O)N[C@@H](Cc1c[nH]cn1)C(=O)N[C@@H](CO)C(=O)N[C@@H](CCSC)C(=O)N[C@@H](CCC(=O)O)C(=O)N[C@H](C(=O)N[C@@H](CCCNC(=N)N)C(=O)N[C@H](C(=O)N1CCC[C@H]1C(=O)N[C@@H](CC(=O)O)C(=O)N[C@H](C(=O)N[C@@H](CC(N)=O)C(=O)N1CCC[C@H]1C(=O)N[C@@H](C)C(=O)N[C@@H](Cc1c[nH]c2ccccc12)C(=O)N[C@@H](Cc1ccc(O)cc1)C(=O)N[C@@H](C)C(=O)N[C@@H](CO)C(=O)N[C@@H](CCCNC(=N)N)C(=O)NCC(=O)N[C@H](C(=O)N[C@@H](CCCNC(=N)N)C(=O)N1CCC[C@H]1C(=O)N[C@H](C(=O)NCC(=O)N[C@@H](CCCNC(=N)N)C(=O)N[C@@H](Cc1ccccc1)C(N)=O)C(C)C)[C@@H](C)CC)[C@@H](C)CC)[C@@H](C)O)[C@@H](C)CC)[C@@H](C)O)C(=O)O [Analog 54] |  | 57% | 14% | significantly reduced | 0.5 ± 0.13 nM | 119%
TPDINPAWYTGRGIRPVGRF-NH2 [Rat PrRP20, reference compound] | 5.56 ± 0.7 nM | 70% | 100% |  |  | 143%
